Measurements: ChEMBL document CHEMBL1201862, “PubChem BioAssay data set” (2004)
The source made the active and inactive calls.

Experiments:
[1] = target: T1, Heat shock factor protein 1 (Mus musculus, UniProt P38532); experiment: inhibition of MG132-induced HSE-luciferase signal, confirmation, cell-based, NIH3T3, luminescence, dose retest (AID 2382); assay type: functional;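 further: NIH3T3 fibroblasts with HSF1-driven luciferase reporter stressed by proteasome inhibitor MG132; luminescence from HSF1-driven luciferase expression after 8 hours of MG132 stress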
T1 sequence (P38532 whole entry): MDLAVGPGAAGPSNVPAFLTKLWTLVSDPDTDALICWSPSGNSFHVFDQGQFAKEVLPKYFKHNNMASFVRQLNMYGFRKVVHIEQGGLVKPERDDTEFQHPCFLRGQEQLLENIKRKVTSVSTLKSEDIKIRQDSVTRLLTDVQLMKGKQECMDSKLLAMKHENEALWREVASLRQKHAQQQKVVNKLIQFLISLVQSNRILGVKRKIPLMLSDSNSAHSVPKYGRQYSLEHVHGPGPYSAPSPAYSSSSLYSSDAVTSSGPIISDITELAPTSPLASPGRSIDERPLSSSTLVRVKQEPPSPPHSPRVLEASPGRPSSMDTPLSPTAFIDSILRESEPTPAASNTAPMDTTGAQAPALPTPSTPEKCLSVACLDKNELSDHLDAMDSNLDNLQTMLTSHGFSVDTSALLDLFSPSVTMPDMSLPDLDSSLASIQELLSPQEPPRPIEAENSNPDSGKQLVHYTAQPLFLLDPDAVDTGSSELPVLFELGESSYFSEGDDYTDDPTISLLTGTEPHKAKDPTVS

[2] = inhibitors of intracellular T. cruzi replication, confirmation, NIH3T3 host cells, beta-gal luminescence (AID 2044); assay type: functional, cell-based;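 further: intracellular parasites grown in NIH/3T3 mouse fibroblasts as host cells; luminescent beta-galactosidase reporter signal from transgenic T. cruzi replicating inside host cells; inhibitors lower the luminescence signal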
[3] = cytotoxicity toward NIH3T3 fibroblasts, dose response, counter-screen, cell-based, ATP luminescence, mouse fibroblasts (AID 2010); assay type: functional;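 further: cells exposed to compound for about 90 hours before reading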
[4] = inhibitors of firefly luciferase expression or activity, dose response, H4 neuroglioma cells, luminescence (AID 1990); assay type: functional, cell-based
[5] = Luminescence Cell-Based Dose Response HTS to Identify Inhibitors of 5'UTR Stem-Loop Driven Prion Protein mRNA Translation in H4 Neuroglioblastoma Cells. [Related pubchem assays: 1827 (Project Summary), 1813 (Primary HTS)]; assay type: functional
[6] = inhibitors of SNCA 5'UTR-driven reporter translation, confirmation, H4 neuroglioma cells, luminescence (AID 1988); assay type: functional, cell-based
[7] = target: T1, Heat shock factor protein 1; experiment: HSF1 potentiators in luciferase reporter cells, confirmation, cell-based, NIH3T3, luminescence, dose retest (AID 435004); assay type: functional;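 further: stress induced by proteasome inhibitor MG132 added 30 min after compound; luciferase reporter driven by HSF1 response element in NIH3T3 cells; actives raise luminescence as potentiators of the MG132 stress response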
[8] = test system: Streptococcus sp. 'group A'; experiment: growth inhibition of control SK(-) GAS strain, dose response, counter-screen for streptokinase expression inhibitor project, luminescence, kanamycin, BacTiterGlo, confirmation (AID 1900); assay type: functional, organism-based
Streptococcus = experiment: Group A Streptococcus viability loss, dose response, counter-screen for streptokinase expression inhibitor project, luminescence, BacTiterGlo (AID 1915); assay type: functional, organism-based;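 further: potency for reduction of bacterial viability or growth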
Cytochrome P450 2C19 = Cytochrome P450 2C19 (Homo sapiens, UniProt P33261); experiment: Cytochrome panel assay with activity outcomes. Panel member name: p450-cyp2c19 Compounds with AC50 equal or less than 10 uM are considered active; assay type: functional; conditions: read-out: AC50
Cytochrome P450 2C19, sequence (P33261 whole entry): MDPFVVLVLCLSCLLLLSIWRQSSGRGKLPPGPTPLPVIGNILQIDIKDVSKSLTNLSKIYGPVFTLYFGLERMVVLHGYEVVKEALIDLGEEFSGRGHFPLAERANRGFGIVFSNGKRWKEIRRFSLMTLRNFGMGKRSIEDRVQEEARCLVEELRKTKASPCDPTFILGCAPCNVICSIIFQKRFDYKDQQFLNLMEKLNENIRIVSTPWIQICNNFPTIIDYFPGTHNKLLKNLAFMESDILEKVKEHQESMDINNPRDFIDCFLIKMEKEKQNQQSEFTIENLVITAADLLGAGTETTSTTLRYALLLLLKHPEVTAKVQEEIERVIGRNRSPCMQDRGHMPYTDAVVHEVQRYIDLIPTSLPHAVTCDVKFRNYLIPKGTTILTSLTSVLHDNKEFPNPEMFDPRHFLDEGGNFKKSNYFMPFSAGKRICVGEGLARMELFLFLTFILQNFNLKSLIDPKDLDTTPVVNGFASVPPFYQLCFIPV

Cc1cc(C)c(NC(=O)CSc2nncn2-c2cccnc2)c(C)c1
EC50 [1]: > 195 µM (not active)

CC(Nc1nc(-c2ccncc2)nc2ccccc12)c1ccccc1 (configuration not stated)
EC50 [2]: 0.596 µM (active)
EC50 [3]: 4.4 µM (active)

CC(C)NC(=O)N(O)C1N(Cc2ccc3c(c2)OCO3)C(=S)SC1(C)C (configuration not stated)
EC50 [1]: > 195 µM (not active)

O=C1Nc2ccccc2N(O)N1c1cc(-c2ccccc2Cl)no1
EC50 [4]: 31.6 µM (active)
EC50 [5]: 70.3 µM (active)
EC50 [6]: > 120 µM (not active)

Cc1ccc(OCC(O)CNCc2ccc(F)cc2)cc1 (configuration not stated)
EC50 [2]: 0.321 µM (active)
EC50 [3]: > 60 µM (not active)

Cc1ccc(S(=O)(=O)NCCOc2nc(N3CCOCC3)nc(N3CCOCC3)n2)cc1
EC50 [7]: > 260 µM (inactive)

CCC1CCCCN1S(=O)(=O)c1ccc(C(=O)Nc2nnc(C3CC3)o2)cc1 (configuration not stated)
EC50 [8]: 4.34 µM (active)
EC50 (Streptococcus): 7.56 µM (active)

CCOc1cc(/C=C2\C(=N)N3N=C(C)SC3=NC2=O)ccc1OCCOc1ccccc1
EC50 [1]: > 195 µM (not active)

O=C(NCCCN1CCOCC1)c1ccc([N+](=O)[O-])cc1[N+](=O)[O-]
EC50 [2]: 0.582 µM (active)
EC50 [3]: > 30 µM (not active)

O=C(Cc1cccs1)N/N=C/c1ccco1
EC50 [8]: 2.88 µM (active)
EC50 (Streptococcus): 2.18 µM (active)

COc1ccc(C(C(=O)NC2CCCC2)N(C(=O)c2snc(-c3ccc(F)cc3)c2N)c2ccc(OC)cc2)cc1 (configuration not stated)
EC50 [2]: 1.59 µM (active)
EC50 [3]: > 60 µM (not active)

Cc1ccc(-c2csc3ncnc(-n4nnc5ccccc54)c23)cc1C
EC50 [4]: 15 µM (active)
EC50 [5]: > 120 µM (not active)
EC50 [6]: > 60 µM (not active)

CCOC(=O)N1CCN(C(=O)c2ccc3nc4ccc(Cl)cc4c(=O)n3c2)CC1
EC50 [4]: > 120 µM (not active)
EC50 [5]: 37.5 µM (active)
EC50 [6]: 7.83 µM (active)

CCCN(CCC)S(=O)(=O)c1ccc(C(=O)Nc2nnc(COC)o2)cc1
EC50 [8]: 5.99 µM (active)
EC50 (Streptococcus): 4.59 µM (active)

CN1CCC(N(C)S(=O)(=O)c2ccc(C(C)(C)C)cc2)CC1
EC50 [2]: 0.249 µM (active)
EC50 [3]: 35.5 µM (active)

CC(C)(CNC(=O)/C=C/c1ccc(F)cc1)CNC(=O)/C=C/c1ccc(F)cc1
EC50 [7]: 3.75 µM (active)

COc1ccc(Cl)cc1S(=O)(=O)N1CCC(C(=O)NCCc2ccccc2)CC1
EC50 [1]: > 195 µM (not active)

O=C(CN1CC(c2ccccc2)CC1=O)NCc1ccc(F)cc1 (configuration not stated)
EC50 [1]: > 195 µM (not active)

C=CCC(NCc1ccco1)c1ccc(OC)c(OC)c1 (configuration not stated)
EC50 [7]: > 260 µM (inactive)

Cc1noc(C)c1-c1cc(Nc2ccccc2)ncn1
AC50 (Cytochrome P450 2C19): 20 µM (inconclusive)

O=C(O)CCNS(=O)(=O)c1ccccc1C(F)(F)F
EC50 [1]: > 195 µM (not active)

Cc1cc(NC(=O)CCC(=O)N(CC(=O)NC2CCCC2)Cc2cccs2)no1
EC50 [7]: > 260 µM (inactive)

CC1CN(C(=O)c2ccccc2)/C(=N/c2cccc(S(=O)(=O)N(C)C)c2)S1 (configuration not stated)
EC50 [4]: > 120 µM (not active)
EC50 [5]: > 120 µM (not active)
EC50 [6]: > 120 µM (not active)

C[C@H]1[C@H](C)CC[C@]2(C(=O)O)CC[C@]3(C)C(=CC[C@@H]4[C@@]5(C)C[C@@H](O)[C@H](O)C(C)(C)[C@@H]5CC[C@]43C)[C@H]12 [COROSOLIC ACID]
EC50 [8]: 2.92 µM (active)
EC50 (Streptococcus): 2.79 µM (active)

O=c1c(-c2ccccc2)nc2cnc(N3CCNCC3)nc2n1C1CC1
AC50 (Cytochrome P450 2C19): 39.8 µM (inconclusive)

O=C1NC(=O)N(c2ccccc2F)C(=O)/C1=C/NCCC1=CCCCC1
EC50 [7]: > 260 µM (inactive)

CCOC(=O)Cc1csc(NC(=O)Nc2cccs2)n1
EC50 [1]: > 195 µM (not active)

Cc1cc(C)n(-c2cc(N3CCN(S(=O)(=O)c4ccc5ccccc5c4)CC3)ccc2[N+](=O)[O-])n1
EC50 [4]: 12 µM (active)
EC50 [5]: 26.7 µM (active)
EC50 [6]: 15.7 µM (active)

CCN(CC)S(=O)(=O)N1CCC(C(=O)N2CCC3(CC2)OCCO3)CC1
EC50 [4]: > 120 µM (not active)
EC50 [5]: 17.6 µM (active)
EC50 [6]: > 120 µM (not active)

N#Cc1cccc(-c2nc(NCCN3CCOCC3)c3ccccc3n2)c1
AC50 (Cytochrome P450 2C19): 15.8 µM (inconclusive)

COc1ccc(CCNc2ncnc3c2c(C)c(C)n3CCO)cc1OC
EC50 [7]: > 260 µM (inactive)
